Assays:
Fecal recovery = assay type: in vivo, Sprague Dawley rats; conditions: male, Sprague-Dawley, faeces; rat, oral gavage 1 mg/kg, collection time 48 h
Experimental: Three male Sprague Dawley rats were administered 1 mg/kg test compound by oral gavage. Feces were collected from study animals from 0-48 or 0-72 hours after dosing, dried by lyophilization, and homogenized. Replicate aliquots of 40-60 mg each were subjected to extraction/protein precipitation with 7:1 acetonitrile:water and centrifuged. Supernatants were diluted 1:10 in 50:50 acetonitrile:water prior to analysis by LC-MS/MS. Compound concentrations, determined by interpolation from a standard calibration curve prepared in blank feces matrix, were converted to the percentage of dosed material recovered by taking into account the total collected fecal matter. The percent recovery for each rat was reported as the mean of the calculations from replicate samples. The overall percent recovery (Fecal Recovery [%]) was reported as the mean percent recovery from three rats. Accurate quality control sample recoveries were confirmed in each run and extraction efficiency was periodically verified.

[1] = system: absorption of sodium from the intestinal lumen; test: Inhibition of intestinal sodium absorption: rat urinary sodium and fecal form 16 h post-dose; assay type: in vivo, Sprague-Dawley rats; conditions: for FFS (fecal form score): 16 h post-dose, scale 1-5, group average; for response vs control in vivo at 3 mg/kg / response vs control in vivo at 10 mg/kg: urine 16 h post-dose, read-out: uNa Result, uNa (% of vehicle)
Outline: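 Eight-week-old Sprague-Dawley rats (n=6) dosed by oral gavage with compound or water vehicle, then kept in metabolic cages with chow and water ad libitum. At 16 h post-dose, urinary sodium measured by ion chromatography and expressed as percent of vehicle mean; fecal form scored 1–5 and averaged over two observations.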

human NHE3 = biological target: T1, human NHE3 (Homo sapiens, UniProt P48764); test: Cell-based assay of NHE-3 activity (pre-incubation inhibition), human; conditions: for IC50: PS120 fibroblasts stably expressing human NHE3, 10 min pre-incubation with 0-30 μM test compound, read-out: pIC50 (human Preincubation assay) (converted); for % inhibition (human Preincubation assay): PS120 fibroblasts stably expressing human NHE3, pre-incubation with test compound
T1 sequence (P48764 26-834): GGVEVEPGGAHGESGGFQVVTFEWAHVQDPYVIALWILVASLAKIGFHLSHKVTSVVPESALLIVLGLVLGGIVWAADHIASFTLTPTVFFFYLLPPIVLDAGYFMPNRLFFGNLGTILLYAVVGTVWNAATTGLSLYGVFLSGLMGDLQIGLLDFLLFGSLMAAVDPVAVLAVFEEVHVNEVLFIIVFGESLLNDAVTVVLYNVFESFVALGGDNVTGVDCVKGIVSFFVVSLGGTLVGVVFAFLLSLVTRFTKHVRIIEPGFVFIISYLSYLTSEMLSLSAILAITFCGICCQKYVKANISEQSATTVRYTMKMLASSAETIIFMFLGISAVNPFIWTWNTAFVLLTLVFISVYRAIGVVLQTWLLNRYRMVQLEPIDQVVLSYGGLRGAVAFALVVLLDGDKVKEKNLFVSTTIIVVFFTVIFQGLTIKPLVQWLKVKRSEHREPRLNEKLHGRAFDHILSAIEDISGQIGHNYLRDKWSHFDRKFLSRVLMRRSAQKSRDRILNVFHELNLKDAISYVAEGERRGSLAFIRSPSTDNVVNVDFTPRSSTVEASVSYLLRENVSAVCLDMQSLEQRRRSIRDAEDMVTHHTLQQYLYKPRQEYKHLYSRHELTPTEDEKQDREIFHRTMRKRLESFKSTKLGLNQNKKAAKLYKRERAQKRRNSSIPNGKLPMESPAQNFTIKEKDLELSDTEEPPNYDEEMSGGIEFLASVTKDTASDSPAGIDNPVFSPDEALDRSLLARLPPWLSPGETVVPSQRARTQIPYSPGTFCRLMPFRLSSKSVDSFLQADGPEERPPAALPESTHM
Experimental: Rat and human NHE-3-mediated Na^+-dependent H^+ antiport was measured using a modification of the pH sensitive dye method originally reported by Paradiso (Proc. Natl. Acad. Sci. USA. (1984) 81(23): 7436-7440, which is hereby incorporated by reference in its entirety). PS120 fibroblasts stably expressing human NHE3 were obtained from Mark Donowitz (Baltimore, Md.). Opossum kidney (OK) cells were obtained from the ATCC and propagated per their instructions. The rat NHE-3 gene (GenBank M85300) was introduced into OK cells via electroporation, and cells were seeded into 96 well plates and grown overnight. Medium was aspirated from the wells then incubated for 30 min at 37° C. with NH4Cl-HEPES buffer (20 mM NH4Cl, 80 mM NaCl, 50 mM HEPES, 5 mM KCl, 2 mM CaCl2, 1 mM MgCl2, pH 7.4) containing 5 μM BCECF-AM. Cells were washed once with Ammonium free, Nat-free HEPES (100 mM choline, 50 mM HEPES, 10 mM glucose, 5 mM KCl, 2 mM CaCl2, 1 mM MgCl2, pH 7.4) and incubated in the same buffer for 10 minutes at room temperature to lower intracellular pH with 0-30 μM test compound. […] Changes in intracellular pH were monitored using a FLIPR Tetra® (Molecular Devices, Sunnyvale, Calif.) by excitation at λex 439 to 505 nm, and measuring BCECF fluorescence at λem 538 nm. The initial rate of the fluorescence ratio change was used as a measure of NHE-mediated Na^+/H^+ activity, and reported as the change in fluorescence ratio per minute. Initial rates were plotted as the average 2 or more replicates, and pIC50 values were estimated using GraphPad Prism.

dose excreted (Fecal recovery)	IC50 (human NHE3)	% inhibition (human Preincubation assay) (human NHE3)	Compound	FFS (fecal form score) ([1]; oral gavage 3 mg/kg)	response vs control in vivo at 3 mg/kg ([1]; oral gavage 3 mg/kg)	FFS (fecal form score) ([1]; oral gavage 10 mg/kg)	response vs control in vivo at 10 mg/kg ([1]; oral gavage 10 mg/kg)
65.7%	< 100 nM	C (>70%)	CN(C)[C@H]1Cc2c(Cl)cc(Cl)cc2[C@@H]1Oc1ccc(S(=O)(=O)NCCOCCOCCNC(=O)COCC(=O)NCCOCCOCCNS(=O)(=O)c2ccc(O[C@H]3c4cc(Cl)cc(Cl)c4C[C@@H]3N(C)C)cc2)cc1 [Example 9, 2,2′-oxybis(N-(2-(2-(2-(4-((1S,2S)-4,6-dichloro-2-(dimethylamino)-2,3-dihydro-1H-inden-1-yloxy)phenylsulfonamido)ethoxy)ethoxy)ethyl)acetamide)]	2	35 to 75%		
87.7%	< 100 nM	C (>70%)	CN(C)[C@H]1Cc2c(Cl)cc(Cl)cc2[C@@H]1Oc1ccc(S(=O)(=O)NCCOCCOCCNC(=O)NCCCCNC(=O)NCCOCCOCCNS(=O)(=O)c2ccc(O[C@H]3c4cc(Cl)cc(Cl)c4C[C@@H]3N(C)C)cc2)cc1 [Example 1, (S,S)—N,N′-(10,17-dioxo-3,6,21,24-tetraoxa-9,11,16,18-tetraazahexacosane-1,26-diyl)bis(4-((1S,2S)-4,6-dichloro-2-(dimethylamino)-2,3-dihydro-1H-inden-1-yloxy)benzenesulfonamide)]			1	< 35%
82.1%	< 100 nM	C (>70%)	CN(C)[C@H]1Cc2c(Cl)cc(Cl)cc2[C@@H]1Oc1ccc(S(=O)(=O)NCCOCCOCCNC(=O)CCC(C)(N)CCC(=O)NCCOCCOCCNS(=O)(=O)c2ccc(O[C@H]3c4cc(Cl)cc(Cl)c4C[C@@H]3N(C)C)cc2)cc1 [Example 11, 4-amino-N1,N7-bis(2-(2-(2-(4-((1S,2S)-4,6-dichloro-2-(dimethylamino)-2,3-dihydro-1H-inden-1-yloxy)phenylsulfonamido)ethoxy)ethoxy)ethyl)-4-methylheptanediamide]				35 to 75%

The next lines start with the compound.

Compound	dose excreted (Fecal recovery)	IC50 (human NHE3)	% inhibition (human Preincubation assay) (human NHE3)	FFS (fecal form score) ([1]; oral gavage 3 mg/kg)	response vs control in vivo at 3 mg/kg ([1]; oral gavage 3 mg/kg)	FFS (fecal form score) ([1]; oral gavage 10 mg/kg)	response vs control in vivo at 10 mg/kg ([1]; oral gavage 10 mg/kg)
O=C(NCCCCNC(=O)NCCOCCOCCNS(=O)(=O)c1ccc(O[C@H]2c3cc(Cl)cc(Cl)c3C[C@@H]2N2CC[C@@H](O)C2)cc1)NCCOCCOCCNS(=O)(=O)c1ccc(O[C@H]2c3cc(Cl)cc(Cl)c3C[C@@H]2N2CC[C@@H](O)C2)cc1 [Example 30]	66.8%	< 100 nM	C (>70%)		35 to 75%		
N[C@@H]1CCCN([C@H]2Cc3c(Cl)cc(Cl)cc3[C@@H]2Oc2ccc(S(=O)(=O)NCCOCCOCCNC(=O)NCCCCNC(=O)NCCOCCOCCNS(=O)(=O)c3ccc(O[C@H]4c5cc(Cl)cc(Cl)c5C[C@@H]4N4CCC[C@@H](N)C4)cc3)cc2)C1 [Example 3, (S,S,R)—N,N′-(10,17-dioxo-3,6,21,24-tetraoxa-9,11,16,18-tetraazahexacosane-1,26-diyl)bis(4-((1S,2S)-2-((R)-3-aminopiperidin-1-yl)-4,6-dichloro-2,3-dihydro-1H-inden-1-yloxy)benzenesulfonamide)]	69.2%	< 100 nM	C (>70%)				35 to 75%

— US10376481B2, “Compounds and methods for inhibiting NHE-mediated antiport in the treatment of disorders associated with fluid retention or salt overload and gastrointestinal tract disorders” (ARDELYX, INC, priority 2012, dated 2019)
